Some test systems named below: LXFL 529; DLD-1; DMS-273; DMS-114; XF498; RXF 631; SNB-78; KM-20L2; HOP-18.
Assay in all cases: NCI-60 cell line screen, 48 h

Molecules are shown by their SMILES.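 In this assay, cells in 96-well plates receive the compound at five concentrations for 48 hours. Endpoints are linearly interpolated between the surrounding concentrations. GI50: concentration for 50% inhibition of growth.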 Activity calls are given as the source filed them. No stated cut-off is given here; in the data, active = GI50 up to about 1.1 µM and inactive = higher.

Take `O=[N+]([O-])c1ccc(COc2cccc3cccnc23)cc1`: the GI50 in the experiment on LXFL 529 is 23.5 µM (inactive); in the experiment with DLD-1, 13.9 µM (inactive); in the experiment with DMS-273, 4.53 µM (inactive); in the experiment on DMS-114, 2.19 µM (inactive); in the experiment with XF498, 19.9 µM (inactive); with RXF 631 it was 13.9 µM (inactive). Further, the GI50 in the experiment with SNB-78 is 38.2 µM (inactive); in the experiment with KM-20L2, 33.3 µM (inactive); in the experiment on HOP-18, 31.5 µM (inactive).
For the compound `N=C(Nc1nc(-c2ccccn2)cc2ccccc12)c1ccccn1`, the GI50 with LXFL 529 was 0.00242 µM (active); with DLD-1, 0.0019 µM (active); in the experiment with DMS-273, 0.00512 µM (active); in the experiment on DMS-114, 0.00108 µM (active); in the experiment with XF498, 0.00407 µM (active); in the experiment on RXF 631, 0.01 µM (active). Also, the values for the GI50 with SNB-78 and in the experiment on HOP-18 were 3.33 µM (inactive) and 0.301 µM (active), respectively.
For `Nc1nc(=O)[nH]c2c1cnn2C1CCCCO1` (stereo not drawn), the GI50 was > 100 µM (inactive) in the experiment with LXFL 529; 62.7 µM (inactive) with DLD-1; > 100 µM (inactive) in the experiment with DMS-273; > 100 µM (inactive) in the experiment on XF498; > 100 µM (inactive) with RXF 631; > 100 µM (inactive) with SNB-78. Further, the GI50 with KM-20L2 and with HOP-18 was > 100 µM (inactive) throughout.
On to `CCC(C)CN1C(=O)NC(Cc2ccccc2)C1=O` (stereo not drawn), for which the GI50 in the experiment on LXFL 529, with DLD-1, in the experiment with DMS-273, in the experiment on DMS-114, with XF498 and with SNB-78 was > 100 µM (inactive) in each case. Also, the results for the GI50 with KM-20L2 and in the experiment with HOP-18 were > 100 µM (inactive) and 0.119 µM (active), respectively.
In the case of `O=C(Nc1ccc(Cl)cc1Cl)/C(Cl)=C1/Sc2ccccc2NC1=O`, the GI50 is 22.2 µM (inactive) in the experiment on LXFL 529; 35.4 µM (inactive) in the experiment on DLD-1; 20.1 µM (inactive) in the experiment on DMS-114; 1.32 µM (inactive) in the experiment on XF498; 44.9 µM (inactive) in the experiment on SNB-78; 61.9 µM (inactive) in the experiment with KM-20L2.
Regarding `C=C=CC(NC(=O)c1ccccc1)(C(=O)O)C(F)(F)F` (stereo not drawn), the GI50 in the experiment with LXFL 529, with DLD-1, with DMS-273, in the experiment with DMS-114, with XF498 and in the experiment on RXF 631 was > 100 µM (inactive) each time. Further, the GI50 with SNB-78 and with HOP-18 was > 100 µM (inactive) in each case.
For `COC(=O)[C@H]1N[C@@H](C(=O)OC)C23CCC[C@H]2CC[C@]1(C(OC)OC)C3`, the GI50 in the experiment on LXFL 529, in the experiment with DLD-1, with DMS-273, in the experiment on DMS-114, with XF498 and in the experiment with SNB-78 was > 100 µM (inactive) each time. For the same compound, the GI50 in the experiment with KM-20L2 and in the experiment with HOP-18 was > 100 µM (inactive) in each case.
For `O=c1c2cc3c(=O)n(CCc4ccccc4CO)c(=O)c3cc2c(=O)n1CCc1ccccc1CO`, the GI50 in the experiment with LXFL 529, in the experiment with DLD-1, in the experiment with DMS-273, with DMS-114, with XF498 and in the experiment with SNB-78 was > 100 µM (inactive) each time.
In the case of `C#CCC1(C(=O)OCC)C(=O)c2ccccc2N(C)C1=O` (stereo not drawn), the GI50 with LXFL 529 was > 100 µM (inactive); with DLD-1, > 100 µM (inactive); in the experiment with DMS-273 it was > 100 µM (inactive); in the experiment on DMS-114, > 100 µM (inactive); with XF498 it was 26.7 µM (inactive); in the experiment with RXF 631, > 100 µM (inactive). In addition, the GI50 in the experiment on SNB-78, with KM-20L2 and with HOP-18 was > 100 µM (inactive) each time.
Take `Nc1nc(N)c2nc(-c3ccco3)cnc2n1`: the GI50 with LXFL 529 was 64.1 µM (inactive); in the experiment with DLD-1 it was > 100 µM (inactive); in the experiment with DMS-114, 38.8 µM (inactive); in the experiment on XF498 it was > 100 µM (inactive); in the experiment with RXF 631, 36 µM (inactive); in the experiment on SNB-78, > 100 µM (inactive). The GI50 in the experiment on KM-20L2 was 69.2 µM (inactive); with HOP-18, 27.6 µM (inactive).
Take `C/C(CCn1[nH]c(=O)ccc1=O)=N\NC(=O)C(=O)NN`: the GI50 with LXFL 529, with DLD-1, with DMS-273, in the experiment on XF498, in the experiment with RXF 631 and in the experiment with KM-20L2 was > 100 µM (inactive) each time. Further, the GI50 in the experiment on HOP-18 was > 100 µM (inactive).
As to `O=C(O)[C@@H](NS(=O)(=O)c1ccc(F)cc1)c1ccccc1`, the GI50 in the experiment on LXFL 529, with DLD-1, in the experiment on DMS-273, with DMS-114, in the experiment with XF498 and with SNB-78 was > 100 µM (inactive) in each case. In addition, the GI50 in the experiment with KM-20L2 and with HOP-18 was > 100 µM (inactive) each time.
Take `C=CCc1cc(OC)c2c(c1)C(OC(C)=O)CC(c1ccc(OC)c(OC)c1)O2` (stereo not drawn): the GI50 with LXFL 529, in the experiment on DLD-1, in the experiment with DMS-273, in the experiment on DMS-114, in the experiment on SNB-78 and with KM-20L2 was > 100 µM (inactive) each time.
As for `C=C(N=[N+]=[N-])c1cn(C2CC(O)C(CO)O2)c(=O)[nH]c1=O` (stereo not drawn), the GI50 in the experiment with LXFL 529, with DLD-1, in the experiment with DMS-273, in the experiment with DMS-114, in the experiment with XF498 and in the experiment with SNB-78 was > 100 µM (inactive) throughout. In addition, the GI50 in the experiment with KM-20L2 and in the experiment with HOP-18 was > 100 µM (inactive) throughout.
As for `Cc1c(/C=N/N(C)C)oc2c1cc(O)c1ncccc12`, the GI50 in the experiment with LXFL 529 was 7.98 µM (inactive); in the experiment with DLD-1, 3.67 µM (inactive); in the experiment on DMS-273, 5.31 µM (inactive); in the experiment with DMS-114, 2.87 µM (inactive); in the experiment on XF498, 8.38 µM (inactive); in the experiment on KM-20L2, 34.5 µM (inactive). Further, the GI50 with HOP-18 was 1.77 µM (inactive).
For the compound `COc1ccc(Cc2c3cc(OC)c(OC)cc3cc[n+]2C)cc1`, the GI50 is 3.18 µM (inactive) in the experiment with LXFL 529; > 18 µM (inactive) with DLD-1; 2.22 µM (inactive) with DMS-273; 2.82 µM (inactive) in the experiment on DMS-114; 4.99 µM (inactive) with XF498; > 10.3 µM (inactive) with RXF 631. Moreover, the GI50 is 58.1 µM (inactive) in the experiment on SNB-78, 10.3 µM (inactive) with KM-20L2 and > 27.9 µM (inactive) in the experiment with HOP-18.
On to `Nc1nc(SCc2ccccc2Cl)c2[nH]cnc2n1`, for which the GI50 was 62.1 µM (inactive) in the experiment with LXFL 529; 69 µM (inactive) with DLD-1; 41 µM (inactive) with DMS-273; 40.8 µM (inactive) in the experiment on DMS-114; > 100 µM (inactive) in the experiment on SNB-78; > 100 µM (inactive) in the experiment on KM-20L2.
Take `COc1ccc2[nH]c3c(C)c4cc[n+](C)cc4c(C)c3c2c1`: the GI50 is 1.06 µM (active) in the experiment on DLD-1; 0.838 µM (active) in the experiment on DMS-273; 0.219 µM (active) in the experiment with DMS-114; 0.406 µM (active) in the experiment on SNB-78; 3.3 µM (inactive) in the experiment with KM-20L2; 3.95 µM (inactive) in the experiment on HOP-18.
Consider `COc1ccc(/C=C/c2cc(OC)c(OCc3ccccc3)c(OC)c2)cc1`, for which the GI50 with LXFL 529 is > 100 µM (inactive); in the experiment on DLD-1, 45.6 µM (inactive); in the experiment on DMS-273, 71.6 µM (inactive); in the experiment on DMS-114, 68.4 µM (inactive); with XF498 it was > 100 µM (inactive); in the experiment on RXF 631 it was 48.3 µM (inactive). The GI50 in the experiment on SNB-78 and in the experiment with KM-20L2 was > 100 µM (inactive) throughout.
